Laboratory results from patent publication US10981932B2, “Macrocyclic indole derivatives” (Bayer Aktiengesellschaft, priority 2016, dated 2021).
Several values for one entry are separate records, joined by “and”; a condition that tells them apart may be missing. Equal values may be shown once. Where a name gives a salt, the structure may show the parent alone. Read-outs that look alike come from different tables or passages of the source.

Legend:
[1] = test system: SUDHL5; assay: Induction of caspase-3/7 activity (Caspase-Glo 3/7), SUDHL5; format: cell-based; details: caspase-3/7 induction, SUDHL5 cells, 3 h treatment, median
Method in brief: (§1)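 Caspase-Glo 3/7 luminescence measured after 3 h compound exposure at 37 °C in SUDHL10 and SUDHL5 cells. EC50 values come from background-corrected signals, with curve bottom set to 1 and plateau set to maximal induction by the reference compound.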

[2] = molecular target: MCL-1 (Homo sapiens, UniProt Q07820); assay: Protein-protein interaction assay MCL-1/Noxa BH3 peptide (MCL-1 assay), TR-FRET; format: binding; details: MBP-MCL-1 / Noxa BH3-derived peptide, median
Chain of MCL-1 (Q07820 whole entry): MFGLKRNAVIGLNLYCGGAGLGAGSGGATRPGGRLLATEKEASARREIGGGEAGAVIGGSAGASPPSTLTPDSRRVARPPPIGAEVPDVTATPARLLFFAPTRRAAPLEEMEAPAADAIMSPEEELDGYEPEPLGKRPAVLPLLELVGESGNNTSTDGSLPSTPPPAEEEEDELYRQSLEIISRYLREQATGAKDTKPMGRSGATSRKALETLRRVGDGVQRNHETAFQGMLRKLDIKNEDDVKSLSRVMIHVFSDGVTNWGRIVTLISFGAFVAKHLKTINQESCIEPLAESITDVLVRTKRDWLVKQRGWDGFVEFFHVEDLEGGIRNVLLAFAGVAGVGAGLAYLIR
Method in brief: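 MBP-MCL-1 (1 nM final) was preincubated 10 min at 22 °C with compounds (11 concentrations, 0.1 nM–20 μM, duplicates) in Tris pH 7 buffer with NaCl, KF, Tween-20, DTT and BGG. After 1 h at 22 °C in the dark plus overnight at 4 °C, anti-MBP Eu-cryptate/streptavidin-XL665 TR-FRET was read; IC50 came from a 4-parameter fit.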

[3] = test system: SUDHL10; assay: Induction of caspase-3/7 activity (Caspase-Glo 3/7), SUDHL10; format: cell-based; details: caspase-3/7 induction, SUDHL10 cells, 3 h treatment, median
Method in brief: as §1

[4] = test system: SUDHL5; assay: Induction of cytotoxicity (CellTiter-Glo, 5 h), SUDHL5
[5] = test system: SUDHL10; assay: Anti-proliferative effect (CellTiter-Glo, 72 h), SUDHL10; format: cell-based; details: SUDHL10 cells, antiproliferation, 72 h incubation, median, read-out: Antiproli SUDHL10 [M] (median)
Method in brief: (§2)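 Anti-proliferative activity is derived from ATP-based luminescence (CellTiter-Glo) in cells exposed to compound for 72 h at 37 °C, set against a time zero plate read at seeding.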

[6] = test system: SUDHL10; assay: Induction of cytotoxicity (CellTiter-Glo, 5 h), SUDHL10
[7] = test system: A2780; assay: Anti-proliferative effect (CellTiter-Glo, 72 h), A2780; format: cell-based; details: A2780 cells, median, read-out: IC50 antiproliferation assay A2780 [M] (median)
Method in brief: as §2

[8] = test system: OPM2; assay: Anti-proliferative effect (CellTiter-Glo, 72 h), OPM2; format: cell-based; details: OPM2 cells, median, read-out: IC50 antiproliferation assay OPM2 [M] (median)
Procedure: Assessment of the Anti-Proliferative Effect of Compounds in Different Cell Lines
The impact of compounds on the proliferation of different cell lines was assessed using the CellTiter-Glo® Luminescent Cell Viability reagent from Promega (G7573). Of note, SUDHL10 and SUDHL5 (DLBCL), NCI-H929 (Multiple Myeloma), A2780 (ovarian carcinoma) as well as MV-4-11(AML) cells are sensitive to MCL-1 inhibition.
In parallel, cells were plated in a reference (day 0) plate for time zero determination.
Rim wells were excluded. The cells were incubated for 72 h hours in a humidified incubator at 37° C. The day 0 plate was measured by adding 30 μl/well of CTG solution (CellTiter-Glo® Luminescent Cell Viability reagent, Promega G7573) to time zero wells in the reference plate followed by a 10 minutes incubation and luminescence reading at 0.1 ms, using the PHERAstar FS microplate reader (BMG Labtech).
After 72 h incubation, the treated plates were measured in the same way as the day 0 plate mentioned above.

[9] = read-out: Cytotox SUDHL5 [M] (median), SUDHL5 cells, cytotoxicity induction, CellTiter-Glo, 5 h incubation, median
[10] = read-out: Cytotox SUDHL10 [M] (median), SUDHL10 cells, cytotoxicity induction, CellTiter-Glo, 5 h incubation, median
[11] = Homo sapiens, SU-DHL-5, 5 h, read-out: Cytotox SUDHL5 [M] (median), SUDHL5 cells, cytotoxicity induction, CellTiter-Glo, 5 h incubation, median
[12] = Homo sapiens, SU-DHL10, 5 h, read-out: Cytotox SUDHL10 [M] (median), SUDHL10 cells, cytotoxicity induction, CellTiter-Glo, 5 h incubation, median

## CC(C)c1c2c(nn1C)CN(C)CCCn1c(C(=O)O)c(CCCOc3cccc4ccccc34)c3cccc-2c31 (single isomer, unassigned; enantiomer 2) [Example 115, 7,10-dimethyl-1-[3-(naphthalen-1-yloxy)propyl]-1-(propan-2-yl)-4,5,6,7,8,10-hexahydropyrazolo[3′,4′:7,8][1,5]diazecino[9,10,1-hi]indole-2-carboxylic Acid (Enantiomer 2)]
[1]
  EC50: > 33 µM
[2]
  IC50: 82.9 nM
[3]
  EC50: 30.5 µM
[4]; [9]
  IC50: 1.13e-05 M
[5]
  IC50: 4.86e-06 M
[6]; [10]
  IC50: 1.49e-05 M
[7]
  IC50: 1.19e-05 M
[8]
  IC50: 1.9e-05 M

## COCc1nn(C)c2c1-c1cccc3c(CCCOc4cccc5ccccc45)c(C(=O)O)n(c13)CCCCOC2 (single isomer, unassigned; enantiomer 2) [Example 160, 3-(methoxymethyl)-1-methyl-7-[3-(naphthalen-1-yloxy)propyl]-1,10,11,12,13,15-hexahydropyrazolo[4′,3′:9,10][1,6]oxazacycloundecino[8,7,6-hi]indole-8-carboxylic acid-N-ethylethanamine Salt (Enantiomer 2)]
[1]
  EC50: 17.9 µM
[2]
  IC50: 20.8 nM
[3]
  EC50: > 33 µM
[4]; [9]
  IC50: 2.05e-05 M
[5]
  IC50: 1.49e-05 M
[6]; [10]
  IC50: > 3.3e-05 M
[7]
  IC50: > 3.3e-05 M
[8]
  IC50: > 3.3e-05 M

## Cc1ccc2cccc(OCCCc3c(C(=O)O)n4c5c(cccc35)-c3c(C)nn(C)c3COCCCC4)c2c1 (racemic) [Example 012, (rac)-1,3-dimethyl-7-{3-[(7-methyl-1-naphthyl)oxy]propyl}-1,10,11,12,13,15-hexahydropyrazolo[4′,3′:9,10][1,6]oxazacycloundecino[8,7,6-hi]indole-8-carboxylic Acid]
[1]; Homo sapiens, SU-DHL-5, 3 h
  EC50: > 33 µM
[2]
  IC50: 27.4 nM
[3]; Homo sapiens, SU-DHL10, 3 h
  EC50: > 33 µM
[4]; [11]
  IC50: 3.14e-05 M
[5]; Homo sapiens, SU-DHL10, 72 h
  IC50: 7.15e-06 M
[6]; [12]
  IC50: > 3.3e-05 M
[7]; Homo sapiens, A2780, 72 h
  IC50: 3.13e-05 M
[8]; Homo sapiens, OPM-2, 72 h
  IC50: 2.17e-05 M

## CN(C)S(=O)(=O)N1CCN(c2ccc(OCc3nn(C)c4c3-c3cccc5c(CCCOc6cccc7ccccc67)c(C(=O)O)n(c35)CCCCCC4)cc2)CC1 (single isomer, unassigned; enantiomer 2) [Example 1-41, 3-({4-[4-(dimethylsulfamoyl)piperazin-1-yl]phenoxy}methyl)-1-methyl-7-[3-(naphthalen-1-yloxy)propyl]-10,11,12,13,14,15-hexahydro-1H-pyrazolo[4′,3′:4,5]azacycloundecino[3,2,1-hi]indole-8-carboxylic acid-N-ethylethanamine Salt (Enantiomer 2)]
[1]
  EC50: 0.723 µM
[2]
  IC50: 1.06 nM
[3]
  EC50: 0.897 µM
[4]; [9]
  IC50: 7.69e-07 M
[5]
  IC50: 1.1e-06 M
[6]; [10]
  IC50: 1.52e-06 M
[7]
  IC50: 5.32e-06 M
[8]
  IC50: 2.17e-06 M

## CC(C)OCc1nn(C)c2c1-c1cccc3c(CCCOc4cccc5ccccc45)c(C(=O)O)n(c13)CCCN(C)C2 (single isomer, unassigned) [Example 1-71, 7,9-dimethyl-1-[3-(naphthalen-1-yloxy)propyl]-1-[(propan-2-yloxy)methyl]-4,5,6,7,8,9-hexahydropyrazolo[3′,4′:7,8][1,5]diazecino[9,10,1-hi]indole-2-carboxylic Acid]
[1]; Homo sapiens, SU-DHL-5, 3 h
  EC50: > 33 µM
[2]
  IC50: 28.3 nM
[3]; Homo sapiens, SU-DHL10, 3 h
  EC50: > 33 µM
[4]; [9]
  IC50: 1.98e-05 M and > 3.3e-05 M
[5]; Homo sapiens, SU-DHL10, 72 h
  IC50: 2.13e-05 M
[6]; [12]
  IC50: > 3.3e-05 M
[7]; Homo sapiens, A2780, 72 h
  IC50: 2.55e-05 M
[8]; Homo sapiens, OPM-2, 72 h
  IC50: 2.57e-05 M

## CN(C)S(=O)(=O)N1CCN(c2ccc(OCc3nn(C)c4c3-c3cccc5c(CCCOc6cccc7ccccc67)c(C(=O)O)n(c35)CCCN(Cc3ccccc3)C4)cc2)CC1 (racemic) [Example 004, (rac)-(7-benzyl-11-({4-[4dimethylsulfamoyl)piperazin-1-yl]phenoxy}methyl)-9-methyl-1-[3-(1-naphthyloxy)propyl]4,5,6,7,8,9-hexahydropyrazolo[3′,4′:7,8][1,5]diazecino[9,10,1-hi]indole-2-carboxylic Acid]
[1]; Homo sapiens, SU-DHL-5, 3 h
  EC50: 12.5 µM
[2]
  IC50: 117 nM
[3]; Homo sapiens, SU-DHL10, 3 h
  EC50: 25.8 µM
[4]; [11]
  IC50: 1.47e-05 M
[5]; Homo sapiens, SU-DHL10, 72 h
  IC50: 2.04e-06 M
[6]; [12]
  IC50: 2.57e-05 M
[7]; Homo sapiens, A2780, 72 h
  IC50: 7.13e-06 M
[8]; Homo sapiens, OPM-2, 72 h
  IC50: 1.09e-05 M
